Read-outs that look alike come from different tables or passages of the source.
Tested on: MT-4 cells
Test: Cytotoxicity test in MT-4 cells (MTT method)
Format: cell-based
Method: In order to look into the HIV-1 inhibition effects of the compound of the present invention, an in vitro test for HIV-1 inhibition effects was carried out as follows according to a known method (H. Tanaka et al., J. Med. Chem., 1991, 34, 349). MT-4 cells were used as host cells, and the degree of the compound of the present invention inhibiting the cytotoxicity of the virus-infected MT-4 cells was investigated.
First, MT-4 cells were diffused at a concentration of 1×10^4 cell/well to a culture medium, and HIV-1 was inoculated so that the concentration was 500 TCI50 (concentration at which 50% of the cell is infected)/well. Immediately after the inoculation, the cell dispersion was transferred in 100 μL each to a flat microtiter plate in which the sample of the compound of the present invention was placed. The sample was incubated for approximately for 4 to 5 days at […], and the virus suppression effect was determined using an MTT method. In addition, the cytotoxicity was also determined by measuring the survivability of the experimentally virus-infected cells using an MTT method. As a comparative compound, azidothymidine (AZT) and raltegravir were used.

CCCCn1c(C)c(C)c2c(-c3ccc(Cl)cc3)c(C(OC(C)(C)C)C(=O)O)c(C)nc21 (stereo not drawn) [Example 16, 2-Tert-butoxy-2-(1-butyl-4-(4-chlorophenyl)-2,3,6-trimethyl-1H-pyrrolo[2,3-b]pyridin-5-yl)acetic acid]
CC60 (μM) ** : concentration at 50% cell damage with respect to MT-4 cells (human): >219 µM

Cc1nc2c(c(C)c(C)n2CC2CC2)c(-c2ccc(Cl)cc2)c1C(OC(C)(C)C)C(=O)O (stereo not drawn) [Example 4, 2-Tert-butoxy-2-(4-(4-chlorophenyl)-1-(cyclopropylmethyl)-2,3,6-trimethyl-1H-pyrrolo[2,3-b]pyridin-5-yl)acetic acid]
CC60 (μM) ** : concentration at 50% cell damage with respect to MT-4 cells (human): 18 µM

Cc1nc2c(c(C)c(C)n2Cc2cccnc2)c(-c2ccc(Cl)cc2)c1[C@H](OC(C)(C)C)C(=O)O [Example 53, (S)-2-(Tert-butoxy)-2-(4-(4-chlorophenyl)-2,3,6-trimethyl-1-(pyridin-3-ylmethyl)-1H-pyrrolo[2,3-b]pyridin-5-yl)acetic acid]
CC60 (μM) ** : concentration at 50% cell damage with respect to MT-4 cells (human): 53.33 µM

COc1cc(Cn2c(C)c(C)c3c(-c4ccc(Cl)cc4)c(C(OC(C)(C)C)C(=O)O)c(C)nc32)cc(Cl)n1 (stereo not drawn) [Example 35, 2-Tert-butoxy-2-(4-(4-chlorophenyl)-1-((2-chloro-6-methoxypyridin-4-yl)methyl)-2,3,6-trimethyl-1H-pyrrolo[2,3-b]pyridin-5-yl)acetic acid]
CC60 (μM) ** : concentration at 50% cell damage with respect to MT-4 cells (human): 14.86 µM

Cc1nc2c(c(C)c(C)n2CC2CC2)c(-c2cc(F)c3c(c2C)CCCO3)c1[C@H](OC(C)(C)C)C(=O)O [Example 76, (S)-2-(Tert-butoxy)-2-((R)-1-(cyclopropylmethyl)-4-((R)-8-fluoro-5-methylchroman-6-yl)-2,3,6-trimethyl-1H-pyrrolo[2,3-b]pyridin-5-yl)acetic acid]
CC60 (μM) ** : concentration at 50% cell damage with respect to MT-4 cells (human): 13.94 µM

Cc1nc2c(c(C)c(C)n2CCC#N)c(-c2ccc(Cl)cc2)c1[C@@H](OC(C)(C)C)C(=O)O [Example 31, (R)-2-tert-butoxy-2-(4-(4-chlorophenyl)-1-(2-cyanoethyl)-2,3,6-trimethyl-1H-pyrrolo[2,3-b]pyridin-5-yl)acetic acid]
CC60 (μM) ** : concentration at 50% cell damage with respect to MT-4 cells (human): 86.73 µM

Cc1nc2c(c(C)c(C)n2CC2CCCC2)c(-c2ccc(Cl)cc2)c1[C@H](OC(C)(C)C)C(=O)O [Example 49, (S)-2-(Tert-butoxy)-2-(4-(4-chlorophenyl)-1-(cyclopentylmethyl)-2,3,6-trimethyl-1H-pyrrolo[2,3-b]pyridin-5-yl)acetic acid]
CC60 (μM) ** : concentration at 50% cell damage with respect to MT-4 cells (human): 15.3 µM

C=CCn1c(C)c(C)c2c(-c3ccc(Cl)cc3)c(C(OC(C)(C)C)C(=O)O)c(C)nc21 (stereo not drawn) [Example 3, 2-(1-Allyl-4-(4-chlorophenyl)-2,3,6-trimethyl-1H-pyrrolo[2,3-b]pyridin-5-yl)-2-tert-butoxyacetic acid]
CC60 (μM) ** : concentration at 50% cell damage with respect to MT-4 cells (human): 26.19 µM

Cc1nc2c(c(C)c(C)n2Cc2cccs2)c(-c2ccc(Cl)cc2)c1[C@H](OC(C)(C)C)C(=O)O [Example 42, (S)-2-(Tert-butoxy)-2-(4-(4-chlorophenyl)-2,3,6-trimethyl-1-(thiophen-2-ylmethyl)-1H-pyrrolo[2,3-b]pyridin-5-yl)acetic acid]
CC60 (μM) ** : concentration at 50% cell damage with respect to MT-4 cells (human): 20.54 µM

Cc1nc2c(c(C)c(C)n2CN2C(=O)c3ccccc3C2=O)c(-c2ccc(Cl)cc2)c1C(OC(C)(C)C)C(=O)O (stereo not drawn) [Example 19, 2-Tert-butoxy-2-(4-(4-chlorophenyl)-1-((1,3-dioxoisoindolin-2-yl)methyl)-2,3,6-trimethyl-1H-pyrrolo[2,3-b]pyridin-5-yl)acetic acid]
CC60 (μM) ** : concentration at 50% cell damage with respect to MT-4 cells (human): >179 µM

Cc1nc2c(c(C)c(C)n2CC(F)(F)F)c(-c2ccc(Cl)cc2)c1[C@H](OC(C)(C)C)C(=O)O [Example 59, (S)-2-(Tert-butoxy)-2-(4-(4-chlorophenyl)-2,3,6-trimethyl-1-(2,2,2-trifluoromethyl)-1H-pyrrolo[2,3-b]pyridin-5-yl)acetic acid]
CC60 (μM) ** : concentration at 50% cell damage with respect to MT-4 cells (human): 5.3 µM

Cc1nc2c(c(C)c(C)n2C)c(-c2ccc(Cl)cc2)c1[C@H](OC(C)(C)C)C(=O)O [Example 26, (S)-2-Tert-butoxy-2-(4-(4-chlorophenyl)-1,2,3,6-tetramethyl-1H-pyrrolo[2,3-b]pyridin-5-yl)acetic acid]
CC60 (μM) ** : concentration at 50% cell damage with respect to MT-4 cells (human): 55.84 µM

Cc1nc2[nH]c(C)c(C)c2c(-c2ccc(Cl)cc2)c1C(OC(C)(C)C)C(=O)O (stereo not drawn) [Example 25, 2-Tert-butoxy-2-(4-(4-chlorophenyl)-2,3,6-trimethyl-1H-pyrrolo[2,3-b]pyridin-5-yl)acetic acid]
CC60 (μM) ** : concentration at 50% cell damage with respect to MT-4 cells (human): 108 µM

Cc1nc2c(c(C)c(C)n2Cc2ccncc2)c(-c2ccc(Cl)cc2)c1[C@H](OC(C)(C)C)C(=O)O [Example 36, (S)-2-Tert-butoxy-2-(4-(4-chlorophenyl)-1-(pyridin-4-ylmethyl)-2,3,6-trimethyl-1H-pyrrolo[2,3-b]pyridin-5-yl)acetic acid]
CC60 (μM) ** : concentration at 50% cell damage with respect to MT-4 cells (human): 24.49 µM

Cc1nc2c(c(C)c(C)n2Cc2ccccc2)c(-c2ccc(Cl)cc2)c1C(OC(C)(C)C)C(=O)O (stereo not drawn) [Example 5, 2-(1-Benzyl-4-(4-chlorophenyl)-2,3,6-trimethyl-1H-pyrrolo[2,3-b]pyridin-5-yl)-2-tert-butoxyacetic acid]
CC60 (μM) ** : concentration at 50% cell damage with respect to MT-4 cells (human): 17 µM

Cc1nc2c(c(C)c(C)n2CC2CC2)c(-c2ccc(Cl)cc2)c1[C@@H](OC(C)(C)C)C(=O)O [Example 29, (R)-2-tert-butoxy-2-(4-(4-chlorophenyl)-1-(cyclopropylmethyl)-2,3,6-trimethyl-1H-pyrrolo[2,3-b]pyridin-5-yl)acetic acid]
CC60 (μM) ** : concentration at 50% cell damage with respect to MT-4 cells (human): 100 µM

Cc1nc2c(c(C)c(C)n2C(C)C)c(-c2ccc(Cl)cc2)c1C(OC(C)(C)C)C(=O)O (stereo not drawn) [Example 21, 2-Tert-butoxy-2-(4-(4-chlorophenyl)-1-isopropyl-2,3,6-trimethyl-1H-pyrrolo[2,3-b]pyridin-5-yl)acetic acid]
CC60 (μM) ** : concentration at 50% cell damage with respect to MT-4 cells (human): 24.51 µM

Cc1nc2c(c(C)c(C)n2Cc2cccnc2F)c(-c2ccc(Cl)cc2)c1[C@H](OC(C)(C)C)C(=O)O [Example 68, (S)-2-(Tert-butoxy)-2-(4-(4-chlorophenyl)-1-((2-fluoropyridin-3-yl)methyl)-2,3,6-trimethyl-1H-pyrrolo[2,3-b]pyridin-5-yl)acetic acid]
CC60 (μM) ** : concentration at 50% cell damage with respect to MT-4 cells (human): 17.14 µM

Cc1nc2c(c(C)c(C)n2Cc2cccc(C#N)c2)c(-c2ccc(Cl)cc2)c1[C@H](OC(C)(C)C)C(=O)O [Example 61, (S)-2-(Tert-butoxy)-2-(4-(4-chlorophenyl)-1-(3-cyanobenzyl)-2,3,6-trimethyl-1H-pyrrolo[2,3-b]pyridin-5-yl)acetic acid]
CC60 (μM) ** : concentration at 50% cell damage with respect to MT-4 cells (human): 9.43 µM

C#CCn1c(C)c(C)c2c(-c3ccc(Cl)cc3)c(C(OC(C)(C)C)C(=O)O)c(C)nc21 (stereo not drawn) [Example 20, 2-Tert-butoxy-2-(4-(4-chlorophenyl)-2,3,6-trimethyl-1-(prop-2-ynyl)-1H-pyrrolo[2,3-b]pyridin-5-yl)acetic acid]
CC60 (μM) ** : concentration at 50% cell damage with respect to MT-4 cells (human): 18.77 µM

Cc1nc2c(c(C)c(C)n2C)c(-c2cc(F)c3c(c2C)CCCO3)c1[C@H](OC(C)(C)C)C(=O)O [Example 74, (S)-2-(Tert-butoxy)-2-((R)-4-(8-fluoro-5-methylchroman-6-yl)-1,2,3,6-tetramethyl-1H-pyrrolo[2,3-b]pyridin-5-yl)acetic acid]
CC60 (μM) ** : concentration at 50% cell damage with respect to MT-4 cells: 23.92 µM

CCCn1c(C)c(C)c2c(-c3ccc(Cl)cc3)c(C(OC(C)(C)C)C(=O)O)c(C)nc21 (stereo not drawn) [Example 15, 2-Tert-butoxy-2-(4-(4-chlorophenyl)-2,3,6-trimethyl-1-propyl-1H-pyrrolo[2,3-b]pyridin-5-yl)acetic acid]
CC60 (μM) ** : concentration at 50% cell damage with respect to MT-4 cells (human): 20.7 µM

Cc1nc2c(c(C)c(C)n2CC2(C#N)CC2)c(-c2ccc(Cl)cc2)c1[C@H](OC(C)(C)C)C(=O)O [Example 47, (S)-2-(tert-butoxy)-2-(4-(4-chlorophenyl)-1-((1-cyanocyclopropyl)methyl)-2,3,6-trimethyl-1H-pyrrolo[2,3-b]pyridin-5-yl)acetic acid]
CC60 (μM) ** : concentration at 50% cell damage with respect to MT-4 cells (human): 16.64 µM

Cc1nc2c(c(C)c(C)n2Cc2ccnc(F)c2)c(-c2ccc(Cl)cc2)c1[C@H](OC(C)(C)C)C(=O)O [Example 66, (S)-2-(Tert-butoxy)-2-(4-(4-chlorophenyl)-1-((2-fluoropyridin-4-yl)methyl)-2,3,6-trimethyl-1H-pyrrolo[2,3-b]pyridin-5-yl)acetic acid]
CC60 (μM) ** : concentration at 50% cell damage with respect to MT-4 cells (human): 14.55 µM

Cc1nc2c(c(C)c(C)n2CCC(C)C)c(-c2ccc(Cl)cc2)c1C(OC(C)(C)C)C(=O)O (stereo not drawn) [Example 18, 2-Tert-butoxy-2-(4-(4-chlorophenyl)-1-isopentyl-2,3,6-trimethyl-1H-pyrrolo[2,3-b]pyridin-5-yl)acetic acid]
CC60 (μM) ** : concentration at 50% cell damage with respect to MT-4 cells (human): 17.32 µM

Cc1nc2c(c(C)c(C)n2C)c(-c2ccc(Cl)cc2)c1C(OC(C)(C)C)C(=O)O (stereo not drawn) [Example 1, 2-Tert-butoxy-2-(4-(4-chlorophenyl)-1,2,3,6-tetramethyl-1H-pyrrolo[2,3-b]pyridin-5-yl)acetic acid]
CC60 (μM) ** : concentration at 50% cell damage with respect to MT-4 cells (human): 25 µM

CCn1c(C)c(C)c2c(-c3ccc(Cl)cc3)c([C@H](OC(C)(C)C)C(=O)O)c(C)nc21 [Example 32, (S)-2-Tert-butoxy-2-(4-(4-chlorophenyl)-1-(ethyl)-2,3,6-trimethyl-1H-pyrrolo[2,3-b]pyridin-5-yl)acetic acid]
CC60 (μM) ** : concentration at 50% cell damage with respect to MT-4 cells (human): 23.48 µM

Source: patent publication US9499537B2, “Antiviral pyrrolopyridine derivatives and method for preparing the same” (KOREA RESEARCH INSTITUTE OF CHEMICAL TECHNOLOGY, priority 2011, dated 2016)
